Source: patent US20050014699A1, “Combinations of enzyme inhibitor-containing preparations and the use thereof” (priority 2000, published 2005)

What was measured:
Type in all cases: cell-based
[1] = system: human peripheric mononuclear cells (MNZ); assay: DNA synthesis of human peripheric mononuclear cells (MNZ), 3[H]-thymidine incorporation; settings: 72 h incubation
Protocol: The MNZ were incubated for 72 h in the presence of said inhibitors, and the DNA synthesis rate was determined subsequently by the measurement of the ^3[H]-thymidine incorporation, as was described by Reinhold et al. [D. Reinhold et al.: “Inhibitors of dipeptidyl peptidase IV induce secretion of transforming growth factor β1 in PWM-stimulated PBMNC and T cells”, Immunology 1997, 91, 354-360].
(§1) Human MNZ were incubated for three days with the concentrations of inhibitors mentioned above. Subsequently, ^3[H]-methyl thymidine was added to the culture medium, and the amount of ^3[H]-thymidine incorporated into the DNA was measured after further 6 hours.
The MNZ were incubated for 72 h in the presence of said inhibitors, and the DNA synthesis rate was determined subsequently by the measurement of the ^3[H]-thymidine incorporation, as was described by Reinhold et al. [D. Reinhold et al.; “Inhibitors of dipeptidyl peptidase IV induce secretion of transforming growth factor β1 in PWM-stimulated PBMNC and T cells”, Immunology 1997, 91, 354-360].

[2] = system: human peripheric T lymphocytes; assay: DNA synthesis of human peripheric T lymphocytes, 3[H]-thymidine incorporation; settings: 72 h incubation
Protocol: The T cells were incubated for 72 h in the presence of said inhibitors and subsequently, the DNA synthesis rate was determined via a measurement of the ^3[H]-thymidin incorporation, as was described by Reinhold et al. [D. Reinhold et al,: “Inhibitors of dipeptidyl peptidase IV induce secretion of transforming growth factor β1 in PWM-stimulated PBMNC and T cells”, Immunology 1997, 91, 354-360].
Human peripheric T cells were incubated over 3 days with the concentrations of the inhibitors shown. Subsequently, ^3[H]-methyl thymidine was added to the culture medium, and the amount of ^3[H]-thymidine inserted into the DNA was measured after further 6 hours.
The T cells were incubated for 72 h in the presence of said inhibitors, and the DNA synthesis rate was determined subsequently by the measurement of the ^3[H]-thymidine incorporation, as was described by Reinhold et al. [D. Reinhold et al.: “Inhibitors of dipeptidyl peptidase IV induce secretion of transforming growth factor β1 in PWM-stimulated PBMNC and T cells”, Immunology 1997, 91, 354-360].
as §1, with “FIG. 3 show a the synergistic and dose-dependent effect of inhibitors of DP IV (I49) and of prolyl oligopeptidase (Boc-Ala-Thia) on the DNA synthesis of human peripheric T lymphocytes. Human” for “Human”, “T cells” for “MNZ”
Human T cells were incubated for three days with the concentrations of inhibitors mentioned above. Subsequently, ^3[H]-methyl thymidine was added to the culture medium, and the amount of ^3[H]-thymidine incorporated into the DNA was measured after further 6 hours.

[3] = system: PHA-activated human mononuclear cells (MNZ); assay: WST-1 cell proliferation assay, PHA-activated human mononuclear cells (MNZ)
Protocol: FIG. 7: The MNZ were incubated for a time period of 72 h without addition (control), with an addition of the mitogenic lectin phytohemagglutinin (PHA), and with the addition of PHA and the inhibitors mentioned above, respectively. Subsequently, the number amount of metabolically active cells was determined by using the commercially available WST-1 cell proliferation assay (Takara Inc.) in accordance with the provisions of the manufacturer.
FIG. 10: The mononuclear cells (MNZ) were incubated for a time period of 72 h in the presence of the inhibitors mentioned above single and in combination. Subsequently, the number of metabolically active cells was determined by using the commercially available WST-1 cell proliferation assay (Takara Inc.) in accordance with the provisions of the manufacturer.

[4] = system: human T cell line KARPAS-299; assay: WST-1 cell proliferation assay, KARPAS-299 cells; settings: single and simultaneous administration of I49 and APN inhibitors Actinonin and Probestin (FIG. 8)
Protocol: FIG. 8: The KARPAS-299 cells were incubated without addition (control) and in the presence of single inhibitors mentioned above as well as in the presence of combinations thereof, respectively. Subsequently, the number of metabolically active cells was determined by using the commercially available WST-1 cell proliferation assay (Takara Inc.) in accordance with the provisions of the manufacturer.

[5] = system: activated human peripheric T cells; assay: WST-1 cell proliferation assay, activated human peripheric T cells; settings: single or simultaneous administration of I49 and APN inhibitors Actinonin and Probestin; activation by phytohemagglutinine and phorbol-12-myristate-13-acetate; 72 h (FIG. 9)
Protocol: FIG. 9: The T cells, with the exception of the untreated control, were activated by an addition of phytohemagglutinine and phorbol-12-myristate-13-acetate to the culture medium and were incubated for a time period of 72 h in the presence of the above-mentioned inhibitors single and in combination. Subsequently, the number of metabolically active cells was determined by using the commercially available WST-1 cell proliferation assay (Takara Inc.) in accordance with the provisions of the manufacturer.

[6] = simultaneous administration of DP IV inhibitor I49 and prolyl oligopeptidase inhibitor Boc-Ala-Thiazolidid, dose-dependent (FIG. 4)
[7] = simultaneous administration of DP IV inhibitor I49 and prolyl oligopeptidase inhibitor Boc-Ala-thiazolidid, dose-dependent (FIG. 3)
[8] = single and simultaneous administration of I49 and Actinonin, PHA, 72 h (FIG. 7)
[9] = simultaneous administration of DP IV inhibitor I49 and APN inhibitor actinonine, dose-dependent (FIG. 2)
[10] = simultaneous administration of DP IV inhibitor I49 and APN inhibitor Actinonin, dose-dependent (FIG. 1)
[11] = single or simultaneous administration of I49 and APP inhibitor Apstatin, PHA-activated, 72 h (FIG. 10)
[12] = simultaneous administration of DP IV inhibitor I49 and ACE inhibitor Captopril, dose-dependent (FIG. 6)
[13] = simultaneous administration of DP IV inhibitor I49 and ACE inhibitor Captopril, dose-dependent (FIG. 5)

Row | SMILES | inhibition of DNA synthesis [1, 6] | inhibition of DNA synthesis [2, 7] | inhibition of proliferation (number of metabolically active cells) [3, 8] | inhibition of DNA synthesis [1, 9] | inhibition of proliferation (number of metabolically active cells) [4] | inhibition of proliferation (number of metabolically active cells) [5] | inhibition of DNA synthesis [2, 10] | inhibition of proliferation (number of metabolically active cells) [3, 11] | inhibition of DNA synthesis [1, 12] | inhibition of DNA synthesis [2, 13]
1 | CC(NC(=O)OC(C)(C)C)C(=O)N1CCSC1 (stereo not drawn) [Boc-Ala-thiazolidid] | inhibited in a superadditive manner | inhibited in a superadditive manner | – | – | – | – | – | – | – | –
2 | CCCCC[C@H](CC(=O)NO)C(=O)N[C@H](C(=O)N1CCC[C@H]1CO)C(C)C [Actinonin] | – | – | Inhibition of the Proliferation | inhibited in a superadditive manner | Inhibition of the Proliferation | Inhibition of the Proliferation | inhibited in a superadditive manner | – | – | –
3 | CC(C)C[C@H](NC(=O)[C@@H](O)[C@H](N)Cc1ccccc1)C(=O)N1CCC[C@H]1C(=O)N1CCC[C@H]1C(=O)O [Probestin] | – | – | – | – | Inhibition of the Proliferation | Inhibition of the Proliferation | – | – | – | –
4 | C[C@H](NC(=O)[C@@H]1CCCN1C(=O)[C@@H]1CCCN1C(=O)[C@@H](O)[C@H](N)Cc1ccccc1)C(N)=O [Apstatin] | – | – | – | – | – | – | – | Inhibition of the Proliferation | – | –
5 | NC(CCCCNC(=O)OCc1ccc([N+](=O)[O-])cc1)C(=O)N1CCSC1 (stereo not shown) [I49, Lys[Z(NO2)]-thiazolidid] | inhibited in a superadditive manner | inhibited in a superadditive manner | Inhibition of the Proliferation | inhibited in a superadditive manner | Inhibition of the Proliferation | Inhibition of the Proliferation | inhibited in a superadditive manner | Inhibition of the Proliferation | inhibited in a superadditive manner | inhibited in a superadditive manner
6 | C[C@H](CS)C(=O)N1CCC[C@H]1C(=O)O [Captopril] | – | – | – | – | – | – | – | – | inhibited in a superadditive manner | inhibited in a superadditive manner
